According to patent US20230180754A1, “HETEROCYCLIC COMPOUNDS FOR THE CONTROL OF INVERTEBRATE PESTS” (priority 2020, published 2023):

What was measured:
Type in all cases: in vivo
[1] = system: green peach aphid (Myzus persicae); test: Green peach aphid (Myzus persicae), systemic artificial diet/membrane test; settings: 72 h, aphid mortality after 3 days, read-out: mortality in comparison with untreated controls
Source text: For evaluating control of green peach aphid (Myzus persicae) through systemic means the test unit consisted of 96-well-microtiter plates containing liquid artificial diet under an artificial membrane.
The compounds were formulated using a solution containing 75% v/v water and 25% v/v DMSO. Different concentrations of formulated compounds were pipetted into the aphid diet, using a custom-built pipette, at two replications.
After application, 5-8 adult aphids were placed on the artificial membrane inside the microtiter plate wells. The aphids were then allowed to suck on the treated aphid diet and incubated at about 23 ±1° C. and about 50 ±5% relative humidity for 3 days. Aphid mortality and fecundity was then visually assessed.

[2] = system: tobacco budworm (Heliothis virescens); test: Tobacco budworm (Heliothis virescens), microtiter plate insect diet test; settings: 120 h, egg and larval mortality after 5 days, read-out: mortality in comparison with untreated controls
Description: (§1) For evaluating control of tobacco budworm (Heliothis virescens) the test unit consisted of 96-well-microtiter plates containing an insect diet and 15-25 H. virescens eggs. The compounds were formulated using a solution containing 75% v/v water and 25% v/v DMSO. Different concentrations of formulated compounds were sprayed onto the insect diet at 10 μl, using a custom-built micro atomizer, at two replications.
After application, microtiter plates were incubated at about 28±1° C. and about 80±5% relative humidity for 5 days. Egg and larval mortality was then visually assessed.

[3] = system: yellow fever mosquito (Aedes aegypti); test: whole plant or invertebrate; settings: 48 h, larval mortality after 2 days, read-out: mortality in comparison with untreated controls
Description: For evaluating control of yellow fever mosquito (Aedes aegypti) the test unit consisted of 96-well-microtiter plates containing 200 μl of tap water per well and 5-15 freshly hatched A. aegypti larvae.
The active compounds were formulated using a solution containing 75% (v/v) water and 25% (v/v) DMSO. Different concentrations of formulated compounds or mixtures were sprayed onto the insect diet at 2.5 μl, using a custom-built micro atomizer, at two replications.
After application, microtiter plates were incubated at 28±1° C., 80±5% RH for 2 days. Larval mortality was then visually assessed.

[4] = system: boll weevil (Anthonomus grandis); test: Boll weevil (Anthonomus grandis), microtiter plate insect diet test; settings: 120 h, egg and larval mortality after 5 days, read-out: mortality in comparison with untreated controls
Description: as §1, with “boll weevil (Anthonomus grandis)” for “tobacco budworm (Heliothis virescens)”, “5-10 A. grandis” for “15-25 H. virescens”, “5” for “10”
After application, microtiter plates were incubated at about 25±1° C. and about 75±5% relative humidity for 5 days. Egg and larval mortality was then visually assessed.

[5] = system: orchid thrips (Dichromothrips corbetti); test: Orchid thrips (Dichromothrips corbetti), floral-immersion technique; settings: 72 hours after treatment, adult thrips, read-out: mortality in comparison with untreated controls
Description: Dichromothrips corbetti adults used for bioassay were obtained from a colony maintained continuously under laboratory conditions. For testing purposes, the test compound was diluted in a 1:1 mixture of acetone:water (vol:vol), plus Kinetic at a rate of 0.01% v/v.
Thrips potency of each compound was evaluated by using a floral-immersion technique. Each orchid petal was dipped into treatment solution and allowed to dry in Petri dishes. Treated petals were placed into individual re-sealable plastic along with about 20 adult thrips. All test arenas were held under dark condition and a temperature of about 28° C. for duration of the assay. The percent mortality was recorded 72 hours after treatment.

[6] = system: diamond back moth (Plutella xylostella); test: Diamond back moth (Plutella xylostella), cabbage leaf disc dip test; settings: foliar, 72 hours after treatment, 3rd instar larvae, read-out: mortality in comparison with untreated controls
Description: The active compound was dissolved at the desired concentration in a mixture of 1:1 (vol:vol) distilled water:acetone. Surfactant (Kinetic) was added at a rate of 0.01% (vol/vol). The test solution was prepared at the day of use. Cabbage leaf discs (60 mm in diameter) were dipped in test solution and air-dried. Treated leaves were placed in petri dishes lined with moistened filter paper and inoculated with ten 3rd instar larvae. Mortality was recorded 72 hours after treatment. Feeding damages were also recorded using a scale of 0-100%.

[7] = system: southern armyworm (Spodoptera eridania), 2nd instar larvae; test: Southern armyworm (Spodoptera eridania), 2nd instar larvae, sprayed lima bean plants; settings: 96 h, 4 days after treatment, read-out: mortality in comparison with untreated controls
Source text: The active compounds were formulated by a Tecan liquid handler in 100% cyclohexanone as a 10′000 ppm solution supplied in tubes. The 10′000 ppm solution was serially diluted in 100% cyclohexanone to make interim solutions. These served as stock solutions for which final dilutions were made by the Tecan in 50% acetone:50% water (v/v) into 10 or 20m1 glass vials. A nonionic surfactant (Kinetic®) was included in the solution at a volume of 0.01% (v/v). The vials were then inserted into an automated electrostatic sprayer equipped with an atomizing nozzle for application to plants/insects. Lima bean plants (variety Sieva) were grown 2 plants to a pot and selected for treatment at the 1st true leaf stage. Test solutions were sprayed onto the foliage by an automated electrostatic plant sprayer equipped with an atomizing spray nozzle. The plants were dried in the sprayer fume hood and then removed from the sprayer. Each pot was placed into perforated plastic bags with a zip closure. Ten to 11 armyworm larvae were placed into the bag and the bags zipped closed. Test plants were maintained in a growth room at about 25° C. and about 20-40% relative humidity for 4 days, avoiding direct exposure to fluorescent light (14:10 light:dark photo-period) to prevent trapping of heat inside the bags. Mortality and reduced feeding were assessed 4 days after treatment, compared to untreated control plants.

[8] = system: rice green leafhopper (Nephotettix virescens); test: Rice green leafhopper (Nephotettix virescens), sprayed rice seedlings; settings: after 72 hours, adults, read-out: mortality in comparison with untreated controls
Description: Four to five-week old rice seedlings with cut upper leaf portion were cleaned and washed 24 hours before spraying. The active compounds were formulated in 1:1 acetone:water (vol:vol), and 0.01% vol/vol surfactant (Kinetic) was added. Potted rice seedlings were sprayed with 5-6 ml test solution, air dried, covered with Mylar cages and inoculated with 10 adults. Treated rice plants were kept at about 28-29° C. and relative humidity of about 50-60%. Percent mortality was recorded after 72 hours.

CC(Nc1noc2c(C(F)(F)F)cc(C(F)(F)F)cc12)c1ncnn1-c1ncccn1 (stereo not drawn) [I-1, N-[1-(2-pyrimidin-2-yl-1,2,4-triazol-3-yl)ethyl]-5,7-bis(trifluoromethyl)-1,2-benzoxazol-3-amine]
≥ 50%: mortality at 2500 ppm [1] | mortality at 2500 ppm [2] | mortality at 2500 ppm [3] | mortality at 2500 ppm [4]

FC(F)(F)c1cc(C(F)(F)F)c2onc(NCc3ncnn3-c3ncccn3)c2c1 [I-2, N-[(2-pyrimidin-2-yl-1,2,4-triazol-3-yl)methyl]-5,7-bis(trifluoromethyl)-1,2-benzoxazol-3-amine]
≥ 50%: mortality at 300 ppm [5] | mortality at 2500 ppm [3] | mortality at 300 ppm [6] | mortality at 2500 ppm [4]

CC(Nc1noc2ncc(C(F)(F)F)cc12)c1ncnn1-c1ncccn1 (stereo not drawn) [I-3, N-[1-(2-pyrimidin-2-yl-1,2,4-triazol-3-yl)ethyl]-5-(trifluoromethyl)isoxazolo[5,4-b]pyridin-3-amine]
≥ 50%: mortality at 2500 ppm [1] | mortality at 2500 ppm [4]

CC(Nc1nn(C)c2ccc(C(F)(F)F)cc12)c1ncnn1-c1ncccn1 (stereo not drawn) [I-4, 1-methyl-N-[1-(2-pyrimidin-2-yl-1,2,4-triazol-3-yl)ethyl]-5-(trifluoromethyl)indazol-3-amine]
≥ 50%: mortality at 2500 ppm [2] | mortality at 2500 ppm [3] | mortality at 2500 ppm [4]

CC(Nc1nsc2c(Cl)cc(Cl)cc12)c1ncnn1-c1ncccn1 (stereo not drawn) [I-5, 5,7-dichloro-N-[1-(2-pyrimidin-2-yl-1,2,4-triazol-3-yl)ethyl]-1,2-benzothiazol-3-amine]
≥ 50%: mortality at 2500 ppm [1] | mortality at 2500 ppm [2] | mortality at 300 ppm [7] | mortality at 2500 ppm [3] | mortality at 2500 ppm [4]

CC(c1ncnn1-c1ncccn1)N(CC1CC1)c1nnc2c(Cl)cc(C(F)(F)F)cn12 (stereo not drawn) [I-6, 8-chloro-N-(cyclopropylmethyl)-N-[1-(2-pyrimidin-2-yl-1,2,4-triazol-3-yl)ethyl]-6-(trifluoromethyl)-[1,2,4]triazolo[4,3-a]pyridin-3-amine]
≥ 50%: mortality at 2500 ppm [1]

CC(Nc1c(C(F)(F)F)c(C(F)(F)C(F)(F)F)nn1C)c1ncnn1-c1ncccn1 (stereo not drawn) [I-7, 2-methyl-5-(1,1,2,2,2-pentafluoroethyl)-N-[1-(2-pyrimidin-2-yl-1,2,4-triazol-3-yl)ethyl]-4-(trifluoromethyl)pyrazol-3-amine]
≥ 50%: mortality at 300 ppm [5] | mortality at 2500 ppm [2] | mortality at 300 ppm [6]

CC(Nc1n[s+]([O-])c2c(Cl)cc(Cl)cc12)c1ncnn1-c1ncccn1 (stereo not drawn) [I-8, 5,7-dichloro-1-oxo-N-[1-(2-pyrimidin-2-yl-1,2,4-triazol-3-yl)ethyl]-1,2-benzothiazol-3-amine]
≥ 50%: mortality at 300 ppm [5] | mortality at 2500 ppm [1] | mortality at 300 ppm [8] | mortality at 2500 ppm [4]

CC(NC1=NS(=O)(=O)c2c(Cl)cc(Cl)cc21)c1ncnn1-c1ncccn1 (stereo not drawn) [I-9, 5,7-dichloro-1,1-dioxo-N-[1-(2-pyrimidin-2-yl-1,2,4-triazol-3-yl)ethyl]-1,2-benzothiazol-3-amine]
≥ 50%: mortality at 2500 ppm [1] | mortality at 2500 ppm [4]

CCC(Nc1noc2c(C(F)(F)F)cc(C(F)(F)F)cc12)c1ncnn1-c1ncccn1 (stereo not drawn) [I-28, N-[1-(2-pyrimidin-2-yl-1,2,4-triazol-3-yl)propyl]-5,7-bis(trifluoromethyl)-1,2-benzoxazol-3-amine]
≥ 50%: mortality at 300 ppm [5] | mortality at 2500 ppm [1] | mortality at 2500 ppm [2] | mortality at 300 ppm [6] | mortality at 2500 ppm [4]
